Data on 1 compound can be found in patent US20240180895A1, “USE OF KAPPA OPIOID RECEPTOR AGONISTS TO TREAT CARDIOVASCULAR DISEASE” (Board of Supervisors of Louisiana State University and …, priority 2021, published 2024).

Common to all, as to assay type: in vivo, rat
The subject of assay [1] is Sprague-Dawley rats. The assay is described as follows: Reversal of oral furosemide diuretic resistance by oral nalfurafine (FIG. 17). As for the experimental part: Male Sprague-Dawley rats were placed in individual metabolic cages in a room with 12-hour automatic light on/off control and allowed tap water and rodent chow ad libitum. Over the next two (2) days (control period), rats were administered vehicle (5% NaOH; 1 M PBS) orally (gavage) in the morning (9:00 am) and afternoon (2:00 pm) and urine was collected for 5-hours after the first oral treatment. […] This was repeated for 8 consecutive days (experimental period).

Assay [2] has as its system conscious Sprague-Dawley rats. The assay is described as follows: Metabolic cage renal excretory studies, oral gavage (Example 3). The conditions noted are these: oral gavage, mean±SEM. As for the experimental part: (§1) Animals: Male Sprague-Dawley (SD) rats (Envigo Labs, Indianapolis, IN), 300-350 g, were individually housed under a 12 h light-dark cycle and allowed tap water and standard rodent diet ad libitum. Rats were randomly assigned to experimental groups for all acute and subacute studies. All procedures were approved by the Louisiana State University Health Sciences Center Institutional Animal Care and Use Committee and conducted in accordance with the National Institutes of Health guidelines for the care and use of animals.
Metabolic Cage Renal Excretory Studies: Rats were placed in metabolic cages (model 18cv, Fenco, Cataumet, MA) for 2 hours to allow for acclimation and voiding of residual urine. Following the acclimation period, rats were volume loaded with 20 cc kg^−1 drug or vehicle (isotonic saline) via oral gavage. Urines were collected each hour over a 5-hour period. Following completion of the study rats were returned to their home cages. […] These points are marked on the figures with number of measurements in parentheses.
(§2) Experimental Design and Analysis: All results are expressed as mean±SEM. […] Means between groups for total urine output, Na^+ concentration, K^+ concentration, and urine osmolality were compared using a Student's t-test. Statistical significance was characterized as P<0.05. Statistics were carried out using Prism 7.05 software (GraphPad Software, Inc., San Diego, CA) and IBM SPSS Statistics (IBM, Armonk, NY).

In assay [3] the test system is Sprague-Dawley rats placed on a low-salt diet. Put plainly: Reversal of furosemide diuretic resistance by difelikefalin in rats on a low sodium diet (FIG. 16). Particulars: low sodium diet. The procedure: Male Sprague-Dawley rats were placed in individual metabolic cages in a room with 12-hour automatic light on/off control and allowed tap water. For these studies, rats were placed on a low-salt diet (0.1% NaCl) for one week prior to and throughout the experimental protocol. […] For the first two (2) days (control period), rats were administered vehicle (5% NaOH; 1 M PBS, IP) in the morning (9:00 am) and urine was then collected for 5-hours.

Assay [4] has as its system Sprague-Dawley rats. Put plainly: Prevention of diuretic resistance to once daily furosemide by difelikefalin, 24-hour urine (FIG. 14). As for the experimental part:
Male Sprague-Dawley rats were placed in individual metabolic cages in a room with 12-hour automatic light on/off control and allowed tap water and rodent chow ad libitum. Over the next two (2) days (control period), rats were administered vehicle (5% NaOH; 1 M PBS, IP) in the morning (9:00 am) and urine was then collected for 24-hours.

The subject of assay [5] is conscious Sprague-Dawley rats. Put plainly: Acute cardiovascular and renal excretory studies, i.v. bolus (Example 3). The procedure:
as §1
Surgical Procedures: Aseptic technique was followed for all surgical procedures. On the morning of the experiment, rats were anesthetized with and maintained under inhaled 2% isoflurane, and polyethylene catheters (PE50; BD Diagnostics, Sparks, MD) were surgically inserted into the left femoral vein and left femoral artery for the infusion of saline and/or drug administration and the recording of arterial blood pressure, respectively. Subsequently, a suprapubic incision was made and a flanged polyethylene catheter (PE240; BD Diagnostics, Sparks, MD) was inserted into the bladder, exteriorized, and sutured to surrounding muscle and skin. Rats were then placed in an elevated restrainer (Krowicki & Kapusta, 2011) to recover from surgery and allow collection of urine. When acute experimental protocols were completed, rats were anesthetized via isoflurane and decapitated.
Acute Cardiovascular and Renal Excretory Studies: Following surgery, rats received an i.v. infusion of isotonic saline at 55 μL min^−1 throughout the duration of the experiment and were allowed 4-6 hours to recover from anesthesia. Arterial catheters were connected to a pressure transducer (MLT0670, ADInstruments, Sydney, Australia), which was connected to Powerlab 8/30 (ADInstruments) for recording of pulsatile and mean arterial blood pressure (MAP) and heart rate (HR). Blood pressure and HR were visualized using LabChart software (v8.1.5; ADInstruments). […] Following this control period, drug or vehicle (isotonic saline) was injected into the femoral vein catheter at a volume of 2 cc kg^−1, and urines were collected in 10 minute periods for a span of 90 minutes. […] All groups are n=6. Urine volume was measured gravimetrically, urine sodium and potassium concentrations were measured using flame photometry (model 943; Instrumentation Laboratories, Lexington, MA), and urine osmolality was measured using a vapor pressure osmometer (model 5600; WESCOR, Logan, UT).
as §2

Assay [6] deals with Sprague-Dawley rats. The assay is described as follows: Prevention of diuretic resistance to twice daily furosemide by nalfurafine, 5-hour urine (FIG. 15). The procedure:
Male Sprague-Dawley rats were placed in individual metabolic cages in a room with 12-hour automatic light on/off control and allowed tap water and rodent chow ad libitum. Over the next two (2) days (control period), rats were administered vehicle (5% NaOH; 1 M PBS, IP) in the morning (9:00 am) and afternoon (2:00 pm) of each day, with urine collected for 5-hours starting immediately after the first injection. […] This was repeated for 4 consecutive days (experimental period).

[7] abbreviates: cumulative 5-hour urine, same doses.
Setting [8] is: i.v. bolus, cumulative 90-min urine, same doses, mean±SEM.

For `NS(=O)(=O)c1cc(C(=O)O)c(NCc2ccco2)cc1Cl` [furosemide], the “5-hour urine output at peak diuresis” value stood at 13.97 ± 0.64 mL in the assay with Sprague-Dawley rats [1] (furosemide (20 mg/kg per method) orally twice per day, day 1); 9.86 ± 0.76 mL in assay [3] (furosemide 10 mg/kg IP once daily, day 1); 13.99 ± 0.72 mL with Sprague-Dawley rats [6] (twice daily IP, furosemide 20 mg/kg alone or with nalfurafine 10 μg/kg, mean±SEM). For the same compound, the “5-hour urine output on day 6” value in the assay with Sprague-Dawley rats [1] (furosemide alone orally twice per day, day 6) is 5.61 ± 1.14 mL. The “Day of peak diuresis” value with Sprague-Dawley rats [1] (furosemide alone, oral) was 1 days; in assay [3] (furosemide alone), 1 days; in the assay with Sprague-Dawley rats [4] (once daily IP for 10 days), 2 days; in the assay with Sprague-Dawley rats [6] (twice daily IP for 4 days) it was 1 days. In addition, the “Potassium concentration [K+] in cumulative urine” value was found to be 23.94±1.02 μeq ml^−1 in assay [2] (setting [7]) and 14.51±0.63 μeq ml^−1 in assay [5] (setting [8]). Also, the “Sodium concentration [Na+] in cumulative urine” value came out at 96.76±2.66 μeq ml^−1 in assay [2] (setting [7]) and 138±1.58 μeq ml^−1 in assay [5] (setting [8]). Besides, the Total urine output in assay [2] (cumulative urine of 5-hour protocol, nalfurafine 150 μg kg−1, furosemide 50 mg kg−1, HCTZ 5 mg kg−1, amiloride 5 mg kg−1, n=6) was determined as 18.28 ± 0.67 mL; in assay [5] (i.v. bolus, cumulative urine of 90-min protocol, nalfurafine 5 μg kg−1, furosemide 7.5 mg kg−1, HCTZ 2.5 mg kg−1, amiloride 2 mg kg−1, mean±SEM, n=6), 9.20 ± 0.75 mL. Also, the “5-hour urine output on day 12” value in assay [3] (furosemide 10 mg/kg IP once daily alone, day 12) amounted to 4.43 ± 0.54 mL. The “24-hour urine output on day 10” value with Sprague-Dawley rats [4] (once daily IP, furosemide 10 mg/kg alone or with difelikefalin 20 μg/kg, day 10) is 5.57 ± 0.63 mL. Also, in the assay with Sprague-Dawley rats [4] (once daily IP, furosemide 10 mg/kg alone or with difelikefalin 20 μg/kg, mean±SEM), the “24-hour urine output at peak diuresis” value came to 14.98 ± 1.85 mL. The “Duration of the increase in urine flow rate above control” value in assay [5] (after i.v. bolus) was 30 min. Also, in assay [5] (after i.v. bolus), the “Time of peak diuresis (urine flow rate)” value is given as 10 min. Also, the “Effect on heart rate (HR)” value in assay [5] (i.v. bolus, 90-min protocol) is on record as “did not produce any change in MAP or HR”. The “Effect on MAP” value in assay [5] (i.v. bolus, diuretic alone, 90-min protocol) is given as “did not produce any change in MAP or HR”. In addition, the Urine osmolality in assay [5] (setting [8]) was found to be 379.8 ± 15.33 mmol/kg. In addition, the “5-hour urine output on day 4” value in the assay with Sprague-Dawley rats [6] (twice daily IP, furosemide 20 mg/kg alone or with nalfurafine 10 μg/kg, day 4) worked out at 7.41 ± 1.40 mL.
